Laboratory results as given in the NIST ThermoML archive (doi:10.1021/je5008795).

Legend:
[1] = for vapor or sublimation pressure: Transpiration method; for Normal melting temperature: DTA; for mass density: 298.15 K, 101 kPa, Vibrating tube method
[2] = xn = mol fraction of the nth substance listed; settings: 298.15 K, 101 kPa, Liquid, Vibrating tube method
[3] = refractive index (Na D-line) (dimensionless); xn = mol fraction of the nth substance listed; settings: 298.15 K, 101 kPa, Liquid, Standard Abbe refractometry
[4] = Molar enthalpy of transition or fusion; settings: Crystal; DSC
[5] = refractive index (Na D-line) (dimensionless); settings: 298.15 K; 101.33 kPa; Liquid; Standard Abbe refractometry

Brc1ccccc1Br [1,2-dibromobenzene]
[1], Liquid
Settings	vapor or sublimation pressure [kPa]
290.3 K	0.01251
292.4 K	0.01408
292.5 K	0.01451
295.8 K	0.01802
298.2 K	0.02158
301.2 K	0.02661
304.2 K	0.03482
307.3 K	0.04115
310.2 K	0.05236
313.2 K	0.06399
316.3 K	0.07736
319.3 K	0.09284
320.6 K	0.09686
322.1 K	0.1075
325.2 K	0.1324
325.3 K	0.135
328.2 K	0.1579

Brc1ccccc1Br [1,2-dibromobenzene] + c1ccccc1
Settings	mass density, x1 = 0.00278 [kg/m3]	mass density, x1 = 0.00365 [kg/m3]	mass density, x1 = 0.00738 [kg/m3]	mass density, x1 = 0.01251 [kg/m3]	refractive index, x1 = 0.00278	refractive index, x1 = 0.00365	refractive index, x1 = 0.00738	refractive index, x1 = 0.01251
[2]	877.563	878.834	884.292	891.807	–	–	–	–
[3]	–	–	–	–	1.49816	1.49829	1.49882	1.49961

Brc1cccc(Br)c1 [1,3-dibromobenzene]
[1], Liquid
Settings	vapor or sublimation pressure [kPa]
276.4 K	0.00508
278.7 K	0.00646
281.1 K	0.00785
282.3 K	0.0086
284.7 K	0.01072
286.9 K	0.01274
288.8 K	0.01468
289.2 K	0.0154
292.3 K	0.01899
292.8 K	0.01997
295 K	0.02324
296.2 K	0.02592
298.8 K	0.03143
301 K	0.03698
301.1 K	0.03822
304.2 K	0.04771
304.9 K	0.0474
307.2 K	0.05893
308.9 K	0.06635
310 K	0.07138
312.9 K	0.08294
313.3 K	0.08608
315.2 K	0.1012
317.8 K	0.1178

Brc1ccc(Br)cc1 [1,4-dibromobenzene]
[1], Crystal
Settings	vapor or sublimation pressure [kPa]
296.5 K	0.00693
299.5 K	0.00922
302.4 K	0.01272
303.5 K	0.01383
305.4 K	0.01701
308.4 K	0.02188
309.4 K	0.02467
311.4 K	0.02936
314.4 K	0.03757
317.4 K	0.04642
319.4 K	0.05898
320.4 K	0.06313
323.4 K	0.08309
329.6 K	0.143

Brc1ccc(Br)cc1 [1,4-dibromobenzene] + c1ccccc1
Settings	mass density, x1 = 0.0018 [kg/m3]	mass density, x1 = 0.00185 [kg/m3]	mass density, x1 = 0.0025 [kg/m3]	mass density, x1 = 0.0033 [kg/m3]	refractive index, x1 = 0.0018	refractive index, x1 = 0.00185	refractive index, x1 = 0.0025	refractive index, x1 = 0.0033
[2]	876.211	876.342	877.295	878.419	–	–	–	–
[3]	–	–	–	–	1.49781	1.49784	1.49795	1.49808

Brc1ccc(Br)c2ccccc12 [1,4-dibromonaphthalene]
Settings	Normal melting temperature [°C]
[1], Crystal	80.0

Settings	Molar enthalpy of transition or fusion [kcal/mol]
[4]	5.04

Brc1ccc(Br)c2ccccc12 [1,4-dibromonaphthalene] + c1ccccc1
Settings	mass density, x1 = 0.00087 [kg/m3]	mass density, x1 = 0.00189 [kg/m3]	mass density, x1 = 0.00208 [kg/m3]	mass density, x1 = 0.00321 [kg/m3]	refractive index, x1 = 0.00087	refractive index, x1 = 0.00189	refractive index, x1 = 0.00208	refractive index, x1 = 0.00321
[2]	875.112	876.792	877.158	879.019	–	–	–	–
[3]	–	–	–	–	1.49786	1.4982	1.49828	1.49872

Clc1ccc(Br)cc1 [1-bromo-4-chlorobenzene] + c1ccccc1
Settings	mass density, x1 = 0.00231 [kg/m3]	mass density, x1 = 0.00253 [kg/m3]	mass density, x1 = 0.00268 [kg/m3]	refractive index, x1 = 0.00231	refractive index, x1 = 0.00253	refractive index, x1 = 0.00268
[2]	875.875	876.093	876.25	–	–	–
[3]	–	–	–	1.49779	1.49781	1.49782

Brc1ccc(-c2ccc(Br)cc2)cc1 [4,4'-dibromo-1,1'-biphenyl]
[1], Crystal
Settings	vapor or sublimation pressure [kPa]
358.1 K	0.00038
363.9 K	0.00067
365.4 K	0.00077
368.4 K	0.00099
373.5 K	0.00162
378.5 K	0.00243
383.5 K	0.00367
388.6 K	0.00579
393.3 K	0.00851
396.6 K	0.01049
399.6 K	0.0138
400.4 K	0.0144
402.6 K	0.0171
404.4 K	0.02039

Brc1ccc(-c2ccc(Br)cc2)cc1 [4,4'-dibromo-1,1'-biphenyl] + c1ccccc1
Settings	mass density, x1 = 0.00076 [kg/m3]	mass density, x1 = 0.0009 [kg/m3]	mass density, x1 = 0.00107 [kg/m3]	mass density, x1 = 0.00116 [kg/m3]	refractive index, x1 = 0.00076	refractive index, x1 = 0.0009	refractive index, x1 = 0.00107	refractive index, x1 = 0.00116
[2]	875.001	875.213	875.48	875.632	–	–	–	–
[3]	–	–	–	–	1.49787	1.49791	1.49796	1.49802

Brc1ccc(-c2ccccc2)cc1 [4-bromo-1,1'-biphenyl]
[1], Crystal
Settings	vapor or sublimation pressure [kPa]
303.2 K	9e-05
308.2 K	0.00016
313 K	0.00027
318.3 K	0.00048
323.4 K	0.00083
326.2 K	0.00109
328.2 K	0.00137
333.3 K	0.0023
338.3 K	0.00364
343.1 K	0.0056
348.3 K	0.00907
353 K	0.01426
355.7 K	0.0165
358.4 K	0.02207
360.2 K	0.0253

Settings	Normal melting temperature [°C]
[1], Crystal	89.0

Settings	Molar enthalpy of transition or fusion [kcal/mol]
[4]	3.9

Brc1ccc(-c2ccccc2)cc1 [4-bromo-1,1'-biphenyl] + c1ccccc1
Settings	mass density, x1 = 0.00109 [kg/m3]	mass density, x1 = 0.00186 [kg/m3]	mass density, x1 = 0.00189 [kg/m3]	mass density, x1 = 0.00237 [kg/m3]	refractive index, x1 = 0.00109	refractive index, x1 = 0.00186	refractive index, x1 = 0.00189	refractive index, x1 = 0.00237
[2]	874.692	875.469	875.45	875.983	–	–	–	–
[3]	–	–	–	–	1.49787	1.4981	1.49809	1.4982

Brc1c2ccccc2c(Br)c2ccccc12 [9,10-dibromoanthracene]
Settings	Normal melting temperature [°C]
[1], Crystal	224.7

Settings	Molar enthalpy of transition or fusion [kcal/mol]
[4]	6.86

Clc1c2ccccc2c(Cl)c2ccccc12 [9,10-dichloroanthracene]
Settings	Normal melting temperature [°C]
[1], Crystal	213.5

Settings	Molar enthalpy of transition or fusion [kcal/mol]
[4]	6

Clc1c2ccccc2cc2ccccc12 [9-chloroanthracene]
Settings	Normal melting temperature [°C]
[1], Crystal	103.5

Settings	Molar enthalpy of transition or fusion [kcal/mol]
[4]	5.26

c1ccccc1 [benzene]
Settings	mass density
[1], Liquid	873.633 kg/m3 [middle of 6 runs]

Settings	refractive index
[5]	1.49755

c1ccccc1 [benzene] + Brc1ccc(-c2ccc(Br)cc2)cc1
x2 = 0
Settings	mass density [kg/m3]	refractive index
[2]	873.633	–
[3]	–	1.49755

c1ccccc1 [benzene] + Brc1ccc(-c2ccccc2)cc1
x2 = 0
Settings	mass density [kg/m3]	refractive index
[2]	873.616	–
[3]	–	1.49755

c1ccccc1 [benzene] + Brc1ccc(Br)c2ccccc12
x2 = 0
Settings	mass density [kg/m3]	refractive index
[2]	873.652	–
[3]	–	1.49755

c1ccccc1 [benzene] + Brc1ccc(Br)cc1
x2 = 0
Settings	mass density [kg/m3]	refractive index
[2]	873.671	–
[3]	–	1.49755

c1ccccc1 [benzene] + Brc1ccccc1Br
x2 = 0
Settings	mass density [kg/m3]	refractive index
[2]	873.478	–
[3]	–	1.49776

c1ccccc1 [benzene] + Clc1ccc(Br)cc1
x2 = 0
Settings	mass density [kg/m3]	refractive index
[2]	873.613	–
[3]	–	1.49755

Clc1c(Cl)c(Cl)c(Cl)c(Cl)c1Cl [hexachlorobenzene] + ClC(Cl)(Cl)Cl
Settings	mass density, x1 = 0.00028 [kg/m3]	mass density, x1 = 0.00052 [kg/m3]	mass density, x1 = 0.00066 [kg/m3]	mass density, x1 = 0.00094 [kg/m3]	refractive index, x1 = 0.00028	refractive index, x1 = 0.00052	refractive index, x1 = 0.00066	refractive index, x1 = 0.00094
[2]	1584.37	1584.53	1584.53	1584.63	–	–	–	–
[3]	–	–	–	–	1.45724	1.45734	1.45735	1.45743

ClC(Cl)(Cl)Cl [tetrachloromethane]
Settings	mass density [kg/m3]
[1], Liquid	1584.26

Settings	refractive index
[5]	1.45715

ClC(Cl)(Cl)Cl [tetrachloromethane] + Clc1c(Cl)c(Cl)c(Cl)c(Cl)c1Cl
x2 = 0
Settings	mass density [kg/m3]	refractive index
[2]	1584.26	–
[3]	–	1.45715
